Assays:
[1] = target: HDM2(11–119) (Homo sapiens, UniProt Q00987); test: Fluorescence anisotropy competition, HDM2 binding to fluorescein-labeled p53
[2] = target: T1, GST-HDMX(1–188) (Homo sapiens, UniProt O15151); test: Fluorescence anisotropy competition, HDMX binding to fluorescein-labeled p53
T1 sequence (O15151 1-188): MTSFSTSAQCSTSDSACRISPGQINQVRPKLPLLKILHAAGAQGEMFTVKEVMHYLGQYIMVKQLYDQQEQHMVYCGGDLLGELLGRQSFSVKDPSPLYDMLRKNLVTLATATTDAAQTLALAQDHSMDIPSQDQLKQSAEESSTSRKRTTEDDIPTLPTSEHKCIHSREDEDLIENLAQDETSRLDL

[3] = compared with derivative with hydrogen at position Y (NAPA 5)
[4] = bromine at position Y replaced with methyl, compared with NAPA 9

For CC(C)CCCNC(=O)N(CC(CCC(=O)O)NC(N)=O)C(CCCCN)CN(C(=O)NCCc1ccc(Br)cc1)C(CCC(=O)O)CN(CCC(N)=O)C(=O)NCCCc1ccc(Br)cc1 (stereo not drawn) [NAPA 9], the “inhibition of HDM2 binding with p53 relative to NAPA 5” value [1, 3] was “two to four times better” and the “inhibition of HDMX binding with p53 relative to NAPA 5” value [2, 3] was “two to four times better”.
Cc1ccc(CCCNC(=O)N(CCC(N)=O)CC(CCC(=O)O)N(CC(CCCCN)N(CC(CCC(=O)O)NC(N)=O)C(=O)NCCCC(C)C)C(=O)NCCc2ccc(Br)cc2)cc1 (stereo not drawn) [NAPA 10] was tested, and the “activity against HDM2 relative to NAPA 9” value [1, 4] was “decreased by three times” and the “inhibitory activity towards HDMX relative to NAPA 9” value [2, 4] was “did not significantly affect”.
With CC(C)CCCCNC(=O)N(CC(CCC(=O)O)NC(N)=O)C(CCCCN)CN(C(=O)NCCc1ccc(Br)cc1)C(CCC(=O)O)CN(CCC(N)=O)C(=O)NCCCc1ccc(Br)cc1 (stereo not drawn) [NAPA 13] the “inhibition of HDM2-p53 binding (in words)” value [1] was “modest inhibition” and the “inhibition of HDMX-p53 binding (in words)” value [2] was “modest inhibition”.
With CC(C)CCC(=O)N[C@@H](CCCC(=O)O)CN(C(=O)NCCCC1CCCCC1)[C@@H](CCCCN)CN(C(=O)NCCc1ccc(Br)cc1)[C@@H](CCCC(=O)O)CN(CCC(N)=O)C(=O)NCCCc1ccc(F)cc1 [NAPA 34] the “inhibition of HDM2-p53 binding (in words)” value [1] was “negative impact on inhibitory activity” and the “inhibition of HDMX-p53 binding (in words)” value [2] was “negative impact on inhibitory activity”.
For NCCCC[C@@H](CN(C(=O)NCCCC1CCCCC1)[C@@H](CCCCN)CN(C(=O)NCCc1ccc(Br)cc1)[C@@H](CCCCN)CN(CCC(N)=O)C(=O)NCCCc1ccc(F)cc1)NC(N)=O [NAPA 35], the “inhibition of HDM2-p53 binding (in words)” value [1] was “eliminated all inhibitory activity” and the “inhibition of HDMX-p53 binding (in words)” value [2] was “eliminated all inhibitory activity”.
CC(C)CCC(=O)NC(CCC(=O)O)CN(CCC1CCC2(CCCCC2)CC1)C(CCCCN)CN(CCCCc1ccc(Br)cc1)[C@@H](CCC(=O)O)CN(CCCCCc1ccc(F)cc1)CCC(N)=O (stereo partly drawn) [NAPA 36] was tested, and the “inhibition of HDM2-p53 binding (in words)” value [1] was “no inhibitory activity” and the “inhibition of HDMX-p53 binding (in words)” value [2] was “no inhibitory activity”.

— publication PMC2784108 (Bioorganic & medicinal chemistry, 2009)
